Molecules are shown by their SMILES.

By EC50 is commonly meant the concentration needed to bring the measured effect to its halfway point.

The nature of the experiment: Agonist activity at Drosophila melanogaster SAD/chicken beta2 nAChR expressed in Xenopus laevis oocytes assessed as inward current by two-electrode voltageclamp technique. It is filed as cell-based.
Regarding `O=[N+]([O-])/N=C1\NCCN1CC1CCOC1` (centres undefined), the EC50 was 148 µM.
In the case of `CC(=O)OCC[N+](C)(C)C` [ACETYLCHOLINE] it was 20 µM; in that of `CN/C(=N/CC1CCOC1)N[N+](=O)[O-]` (centres undefined) [DINOTEFURAN], 224 µM; in that of `O=[N+]([O-])/N=C1\NCCN1Cc1ccc(Cl)nc1` [IMIDACLOPRID], 2.82 µM.
